Results reported in BindingDB's records for doi:10.1016/j.bmc.2007.07.029 (Polish Academy of Sciences, 2007).

What was measured:
Assay in all cases: Radioligand Binding Assay (Ki)
[1] = target: T1, Alpha-1B adrenergic receptor (Rattus norvegicus, UniProt P15823)
T1 sequence (P15823 whole entry): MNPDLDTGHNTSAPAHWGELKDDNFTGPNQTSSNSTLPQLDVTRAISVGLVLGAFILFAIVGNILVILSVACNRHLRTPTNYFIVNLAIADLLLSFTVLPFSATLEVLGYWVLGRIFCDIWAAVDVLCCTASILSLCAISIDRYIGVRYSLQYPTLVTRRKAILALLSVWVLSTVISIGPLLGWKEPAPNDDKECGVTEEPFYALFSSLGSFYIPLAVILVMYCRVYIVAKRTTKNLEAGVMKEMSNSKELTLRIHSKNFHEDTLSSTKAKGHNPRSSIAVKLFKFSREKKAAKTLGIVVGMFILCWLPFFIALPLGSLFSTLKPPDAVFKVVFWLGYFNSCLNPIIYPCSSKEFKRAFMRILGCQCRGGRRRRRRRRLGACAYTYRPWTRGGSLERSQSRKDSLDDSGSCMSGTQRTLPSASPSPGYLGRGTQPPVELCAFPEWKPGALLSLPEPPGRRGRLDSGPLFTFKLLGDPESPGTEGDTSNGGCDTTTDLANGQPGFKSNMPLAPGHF
Method: (§1) Competition experiments were performed in the presence radioligand with membrane protein and test compounds. After incubation, the reaction stopped by rapid filtration onto a 96-well GF/B filter. Radioactivity retained on the filters was measured by liquid scintillation counting (Beckman LS 6500 apparatus). IC50 values for test compounds were determined from nonlinear regression analysis of data collected from ligand binding experiments. The inhibition constant (Ki) was calculated from IC50 value by the Cheng and Prusoff equation.

D(2) dopamine receptor = D(2) dopamine receptor (Rattus norvegicus, UniProt P61169)
D(2) dopamine receptor, sequence (P61169 whole entry): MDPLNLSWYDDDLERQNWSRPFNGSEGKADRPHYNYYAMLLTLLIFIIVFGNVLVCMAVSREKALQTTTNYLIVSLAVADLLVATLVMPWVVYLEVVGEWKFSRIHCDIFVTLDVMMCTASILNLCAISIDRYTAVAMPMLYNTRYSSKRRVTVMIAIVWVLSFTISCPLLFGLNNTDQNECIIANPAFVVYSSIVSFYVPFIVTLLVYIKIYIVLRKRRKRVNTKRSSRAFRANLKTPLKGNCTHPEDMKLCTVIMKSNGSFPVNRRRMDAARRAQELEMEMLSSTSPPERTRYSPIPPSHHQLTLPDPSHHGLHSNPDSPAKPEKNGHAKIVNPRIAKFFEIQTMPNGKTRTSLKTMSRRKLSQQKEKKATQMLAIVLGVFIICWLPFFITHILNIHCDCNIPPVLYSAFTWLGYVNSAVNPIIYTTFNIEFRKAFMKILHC
Method: as §1

[2] = target: T2, 5-hydroxytryptamine receptor 1A (Rattus norvegicus, UniProt P19327); settings: pH 7.4; 37 °C
T2 sequence (P19327 whole entry): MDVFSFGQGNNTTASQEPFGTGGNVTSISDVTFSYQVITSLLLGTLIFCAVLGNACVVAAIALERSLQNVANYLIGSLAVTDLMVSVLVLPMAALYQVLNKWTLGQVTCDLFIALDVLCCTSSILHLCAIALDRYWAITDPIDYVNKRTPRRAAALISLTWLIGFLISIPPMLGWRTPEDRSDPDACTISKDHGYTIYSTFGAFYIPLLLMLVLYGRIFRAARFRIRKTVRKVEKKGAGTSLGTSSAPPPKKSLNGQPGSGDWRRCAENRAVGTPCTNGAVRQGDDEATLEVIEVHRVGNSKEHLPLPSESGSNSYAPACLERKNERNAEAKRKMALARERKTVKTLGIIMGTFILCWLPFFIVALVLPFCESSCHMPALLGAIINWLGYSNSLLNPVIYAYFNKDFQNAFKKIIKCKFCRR
Method: as §1

[3] = target: 5-hydroxytryptamine receptor 7 (Homo sapiens, UniProt P34969); settings: pH 7.4; 37 °C
5-hydroxytryptamine receptor 7, sequence (P34969 whole entry): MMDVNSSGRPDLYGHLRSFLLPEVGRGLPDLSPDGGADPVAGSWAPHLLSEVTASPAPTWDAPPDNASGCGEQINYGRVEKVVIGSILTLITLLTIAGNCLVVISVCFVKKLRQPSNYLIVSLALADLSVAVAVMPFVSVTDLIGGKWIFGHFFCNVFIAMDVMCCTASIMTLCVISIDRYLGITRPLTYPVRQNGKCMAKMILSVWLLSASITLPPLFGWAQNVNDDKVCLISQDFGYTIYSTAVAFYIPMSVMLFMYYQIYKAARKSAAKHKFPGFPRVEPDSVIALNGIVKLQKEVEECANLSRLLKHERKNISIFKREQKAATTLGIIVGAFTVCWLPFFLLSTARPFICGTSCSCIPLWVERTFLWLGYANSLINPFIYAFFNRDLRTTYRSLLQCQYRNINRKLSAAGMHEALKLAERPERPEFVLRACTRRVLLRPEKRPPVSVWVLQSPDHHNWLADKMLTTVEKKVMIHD
Method: as §1

O=C1CCC(=O)N1C1CCC(N2CCN(c3cccc(C(F)(F)F)c3)CC2)CC1 (centres undefined) [1-(m-trifluorophenyl)piperazine, 4]
Ki [1]: 505 nM | Ki (D(2) dopamine receptor): > 25 µM | Ki [2]: 4 nM | Ki [3]: 1820 nM
